Common to all, as to type: cell-based
For one assay, the system named is Phospho-Rb (Ser807/811). Description: Phospho-Retinoblastoma (pRB) Cellular Assay. The following applies: Homo sapiens, OVCAR-3, NIH OVCAR3 cells, 24 hours; for IC50: concentration giving 50% response; for Emax: maximum response, reference compound at 10 μM = 100%, read-out: pRB Ymax. How it is done:
Phospho-Retinoblastoma (pRB) Cellular Assay
NIH OVCAR3 (HTB-161, American Type Culture Collection, Manassas VA) cells were grown up to passage 10 in culture media made up of RPMI (11835-030 Gibco, Grand Island NY), 20% HI FBS (16140-071, Gibco, Grand Island NY), and 0.01 mg/mL insulin from bovine pancreas (I6634-1G, Sigma Aldrich, St. Louis, MO).
The cells were seeded in a 384-well CulturPlate (6007688, Perkin Elmer, Waltham MA) at a density of 10,000 cells/well in 20 μL of the above culture media and incubated overnight at 37° C. and 5% CO2.
The next day, cells were treated using an Echo 650 (Beckman Coulter, Indianapolis IN) acoustic dispenser with 40 nL of compounds dissolved in DMSO at the appropriate serial dilutions (10 mM to […]). Cells were then incubated for 24 hours as above.
After 24 hours elapsed, media was removed from each well and shortly after 20 μL of the following mix was added: 12 μL deionized water, 4 μL lysis buffer, 4 μL of reconstituted antibody mix, and 1:100 phosphatase inhibitor. These components belong to the Phospho-Rb (Ser807/811) Cellular Kit (64RBS807PEY, Perkin Elmer, Waltham MA).
Plates were sealed and incubated away from light at room temperature for at least 4 hours before reading them on an EnVision plate reader (Perkin Elmer, Waltham MA) according to the kit manufacturer's protocol. The reference compound, N-(5-{[(5-tert-butyl-1,3-oxazol-2-yl)methyl]sulfanyl}-1,3-thiazol-2-yl)piperidine-4-carboxamide, at 10 μM was used to define 100% response. Assay results for each compound were reported as IC50, the concentration giving 50% response, and Ymax, the maximum response observed with the compound.

A further assay addresses Cyclin E1 (Homo sapiens, UniProt P24864+Q96SW2). In words: Cyclin E1 Cellular Degradation Assay (MSD). More on the design: endogenous in cells; host or cells: OVCAR3. Conditions: for DC50 / Dmax: Cyclin E1 cellular degradation; for Dmax: maximum degradation; for Ratio of GSPT1 DC50/Cyclin E1 DC50: selectivity for degradation of Cyclin E1 over GSPT1. How it is done:
Culturing cells: On Day 0, OVCAR3 cells were plated at 15,000 cells/well in 40 μL of culture medium (RPMI1640, 20% FBS, 0.01 insulin, 1% Anti/Anti) in a 384 well cell culture plate. Cell cultures were incubated for 24 hours at 37° C. and 5% CO2.
Coating MSD plates: On Day 1, rabbit anti-CCNE1 antibody (Abcam ab33911, 1 μg/mL in DPBS, […]) was dispensed to a Meso Scale Discovery plate (MSD L21XA). The MSD plate was spun briefly to ensure the solution coated the bottom of the well and incubated overnight at 4° C. On Day 2, the plate was washed 3 times with TBS +0.2% TWEEN, blocked for 1 hour with 3% MSD Blocker A (MSD R93AA-1, 30 μL/well), then washed again 3 times with TBS+0.2% TWEEN.
Treating and lysing cells: On Day 1, compounds of interest were dispensed into the cell cultures by acoustic dispensing technology. The cell cultures were then spun at 400 g for 4 minutes to disperse the compounds and incubated at 37° C. and 5% CO2 for 24 hours. After incubation, 40 μL of DPBS was added to the cell cultures to dilute the media. All liquid was gently discarded and immediately replaced with 30 μL of lysis buffer (MSD Tris Lysis buffer (MSD R60TX-2), Halt Protease inhibitor (ThermoFisher 78438), Phosphatase Inhibitor II (Sigma-Aldrich P5726), Phosphatase Inhibitor III (Sigma-Aldrich P0044), 0.02M PMSF (Sigma-Aldrich 7626), 0.1% SDS (VWR E719-100ML)). The plate was then sealed, shaken at 300 rpm at room temperature for 5 minutes, and freeze-thawed for optimum cell lysis.
Collecting data: After thawing, 25 μL of lysate was transferred to a coated MSD plate. The plate was then sealed and shaken at 300 rpm overnight in 4° C. On Day 3, the MSD plate was washed 3 times with TBS+0.2% TWEEN. Mouse anti-CCNE1 antibody (Abcam ab238081, 0.5 μg/mL in 1% MSD Blocker A, 10 μL/well) dispensed to the MSD plate, which was then sealed and shaken at room temperature for 3 hours. After the first antibody incubation, the plate was washed 3 times with TBS+0.2% TWEEN, then goat anti-mouse Sulfo-Tag antibody (MSD R32AC, 1 μg/mL in 1% MSD Blocker A, 10 μL/well) was dispensed to the MSD plate. The plate was sealed again and shaken at room temperature for 1 hour, then washed 3 times with TBS+0.2% TWEEN. After the final wash, 35 μL of 1× Read Buffer (MSD R92TC-1) was added to each well and the data was captured using the MSD plate reader. The reference compound, [2-(2,6-dioxopiperidin-3-yl)-4-methoxy-3-oxo-2,3-dihydro-1H-isoindol-5-yl]methyl N-[4-(3,4-difluorophenoxy)phenyl]carbamate, at […] was used to define […]. Assay results for each compound were reported as DC50, the concentration giving 50% response, and Dmax, the maximum response observed with the compound.

For a further assay, the target named is GSPT1 (Homo sapiens, UniProt P15170+Q96SW2). In words: GSPT1 Cellular Degradation Assay (DF15-GSPT1-ePL). Conditions: DF15-GSPT1-ePL cells, 20 hours. More on the design: expressed in transfected cells. From the text: DF15-GSPT1-ePL was used for intracellular GSPT1 protein degradation detection in form of chemiluminescent signal, which was built on a human DF15 cell line (CVCL_Y429) with conditional co-expression of chimeric GSPT1 (target) and ePL/donor (enhanced ProLabel® by DiscoverX for enzyme fragment complementation with donor-acceptor pairing). The cells used the culture medium in two arrangements for assay and maintenance. During assay, it used Core-RPMI 1640 medium with 10% Fetal Bovine Serum (Heat Inactivated) and 1× Penicillin/Streptomycin; and during passage maintenance, used added ingredients: 0.1 mM NEAA, 1 mM sodium pyruvate, 25 mM Hepes, 0.1% Pluronic F-68, 1× Glutamin, 4 μg/mL Blasticidin (selection agent). Detection was performed on a 1536 well tissue culture plate (Corning #3727) with cells seeded in 3.5 μL core-RPMI 1640 at density of 0.25 million/mL after the pre-titrated test compounds in DMSO on ECHO plate were dispensed onto the assay plate by use of ECHO (liquid handing system via acoustic energy from Labcyte). Assay incubation lasted 20 hours in 37° C. incubator with 5% CO2; then followed by 30 minutes of plate-cooling at room temperature; then detection-reagent-mix was added in 3.5 μL/well with pre-defined proportion of enzyme acceptor, substrate, and lysis buffer. Plate signal reading for luminescence on an EnVision plate reader (PerkinElmer) was conducted after 60 minutes of former step at room temperature. Raw data was collected and processed with Dotmatics (data analyzer) for test compound's potency values. The reference compound, 3-[5-(3,6-dimethoxyisoquinolin-1-yl)-1-oxo-2,3-dihydro-1H-isoindol-2-yl]piperidine-2,6-dione, at […] was used to define 75% response. Assay results for each compound were reported as DC50, the concentration giving 50% response, and Dmax, the maximum response observed with the compound.

A word on the IC50: it is the concentration at which inhibition is half-maximal. A low value points to greater potency in that assay. As usually defined, the DC50 is the concentration at which degradation of the target reaches its halfway point. The low end stands for a more potent degrader, the high end for a less potent degrader. In general, Dmax refers to the greatest extent of degradation seen.

GSPT1, sequence (P15170 whole entry, the tested form may be a part): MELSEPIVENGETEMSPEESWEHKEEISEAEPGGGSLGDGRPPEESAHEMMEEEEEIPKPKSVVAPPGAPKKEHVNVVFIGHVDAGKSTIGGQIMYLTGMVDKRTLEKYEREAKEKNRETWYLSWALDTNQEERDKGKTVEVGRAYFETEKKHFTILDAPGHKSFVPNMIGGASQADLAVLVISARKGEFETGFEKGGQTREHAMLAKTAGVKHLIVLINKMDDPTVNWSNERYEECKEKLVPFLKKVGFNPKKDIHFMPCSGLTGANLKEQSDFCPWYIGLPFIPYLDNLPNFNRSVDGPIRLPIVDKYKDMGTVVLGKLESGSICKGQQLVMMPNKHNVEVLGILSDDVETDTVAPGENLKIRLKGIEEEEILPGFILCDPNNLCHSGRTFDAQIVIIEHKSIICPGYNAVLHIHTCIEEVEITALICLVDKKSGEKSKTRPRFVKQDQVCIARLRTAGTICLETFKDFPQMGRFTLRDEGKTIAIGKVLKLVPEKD
GSPT1, sequence (Q96SW2 whole entry, the tested form may be a part): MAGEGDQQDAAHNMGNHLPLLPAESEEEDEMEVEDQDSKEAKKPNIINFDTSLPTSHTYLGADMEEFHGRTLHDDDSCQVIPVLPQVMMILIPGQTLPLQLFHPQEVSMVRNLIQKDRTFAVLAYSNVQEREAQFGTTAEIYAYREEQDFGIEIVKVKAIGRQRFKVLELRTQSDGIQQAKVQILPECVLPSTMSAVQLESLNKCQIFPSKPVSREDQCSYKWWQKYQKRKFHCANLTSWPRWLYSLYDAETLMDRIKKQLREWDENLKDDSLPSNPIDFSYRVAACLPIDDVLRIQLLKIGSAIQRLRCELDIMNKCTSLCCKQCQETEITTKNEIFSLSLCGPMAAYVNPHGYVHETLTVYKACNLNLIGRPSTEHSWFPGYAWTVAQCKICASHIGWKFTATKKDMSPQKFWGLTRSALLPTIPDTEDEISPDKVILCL
GSPT1, sequence (Q16531 whole entry partner, the tested form may be a part): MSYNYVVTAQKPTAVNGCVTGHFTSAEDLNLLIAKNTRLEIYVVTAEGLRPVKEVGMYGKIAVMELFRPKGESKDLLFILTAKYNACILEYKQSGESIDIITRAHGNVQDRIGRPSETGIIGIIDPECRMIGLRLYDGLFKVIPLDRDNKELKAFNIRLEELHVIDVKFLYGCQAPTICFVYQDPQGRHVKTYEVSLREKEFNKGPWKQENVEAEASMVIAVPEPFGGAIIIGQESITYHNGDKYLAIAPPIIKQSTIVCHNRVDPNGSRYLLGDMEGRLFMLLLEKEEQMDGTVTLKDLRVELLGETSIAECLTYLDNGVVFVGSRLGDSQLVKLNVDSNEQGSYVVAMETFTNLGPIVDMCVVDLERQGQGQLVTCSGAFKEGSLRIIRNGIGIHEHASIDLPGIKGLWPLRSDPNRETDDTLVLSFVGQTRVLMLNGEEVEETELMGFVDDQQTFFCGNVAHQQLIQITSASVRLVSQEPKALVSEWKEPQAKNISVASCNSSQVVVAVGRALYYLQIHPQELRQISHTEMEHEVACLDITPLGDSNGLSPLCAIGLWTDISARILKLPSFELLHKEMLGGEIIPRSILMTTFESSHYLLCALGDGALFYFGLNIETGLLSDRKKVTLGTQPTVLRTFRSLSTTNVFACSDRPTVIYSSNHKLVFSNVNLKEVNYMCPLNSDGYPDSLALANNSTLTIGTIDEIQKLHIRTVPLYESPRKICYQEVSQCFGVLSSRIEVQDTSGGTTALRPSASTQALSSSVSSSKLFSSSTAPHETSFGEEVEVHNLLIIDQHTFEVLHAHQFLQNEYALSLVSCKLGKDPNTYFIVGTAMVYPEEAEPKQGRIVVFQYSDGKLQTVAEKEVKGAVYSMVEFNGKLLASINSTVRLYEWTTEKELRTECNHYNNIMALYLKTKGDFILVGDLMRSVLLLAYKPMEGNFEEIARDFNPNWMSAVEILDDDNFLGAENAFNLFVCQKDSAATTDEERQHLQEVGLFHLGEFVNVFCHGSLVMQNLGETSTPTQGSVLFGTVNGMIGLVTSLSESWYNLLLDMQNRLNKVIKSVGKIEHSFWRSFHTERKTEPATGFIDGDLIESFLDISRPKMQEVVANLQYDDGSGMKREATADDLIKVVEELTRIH
Cyclin E1, sequence (P24864 whole entry): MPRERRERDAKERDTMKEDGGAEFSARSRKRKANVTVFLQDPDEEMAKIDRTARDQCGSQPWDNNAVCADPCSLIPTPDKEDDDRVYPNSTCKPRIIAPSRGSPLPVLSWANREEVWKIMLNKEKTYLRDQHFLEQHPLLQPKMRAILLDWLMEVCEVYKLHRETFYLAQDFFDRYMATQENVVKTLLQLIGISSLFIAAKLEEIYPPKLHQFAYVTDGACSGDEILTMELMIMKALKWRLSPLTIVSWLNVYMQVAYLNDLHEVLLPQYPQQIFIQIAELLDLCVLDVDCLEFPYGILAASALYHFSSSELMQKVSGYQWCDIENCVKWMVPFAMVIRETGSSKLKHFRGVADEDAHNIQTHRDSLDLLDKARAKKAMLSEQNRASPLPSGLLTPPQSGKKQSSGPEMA
Cyclin E1, sequence (Q96SW2 whole entry): as the sequence (Q96SW2 whole entry, the tested form may be a part) above
Cyclin E1, sequence (Q16531 whole entry partner): as the sequence (Q16531 whole entry partner, the tested form may be a part) above

On to `O=C1CC[C@H](N2Cc3ccc(COC(=O)Nc4ccc(Oc5ccc(F)c(F)c5)cc4)c(OCCCc4ccccc4)c3C2=O)C(=O)N1` [Example 173, {2-[(3S)-2,6-dioxopiperidin-3-yl]-3-oxo-4-(3-phenylpropoxy)-2,3-dihydro-1H-isoindol-5-yl}methyl N-[4-(3,4-difluorophenoxy)phenyl]carbamate], for which, in the assay with Phospho-Rb (Ser807/811), the IC50 was 0.129 µM and the Emax is 127%. Besides, on Cyclin E1, it took 0.156 µM to reach half-maximal degradation (DC50), the Dmax was determined as 105% and the “Ratio of GSPT1 DC50/Cyclin E1 DC50” value was >89. At GSPT1, the DC50 is > 14 µM and the Dmax is 14%.

Consider `COc1c(COC(=O)Nc2ccc(Cc3ccc(F)c(Cl)c3)cc2)ccc2c1C(=O)N(C1CCC(=O)NC1=O)C2` (centres unmarked) [Example 21, [2-(2,6-dioxopiperidin-3-yl)-4-methoxy-3-oxo-2,3-dihydro-1H-isoindol-5-yl]methyl N-{4-[(3-chloro-4-fluorophenyl)methyl]phenyl}carbamate], for which, in the assay on Phospho-Rb (Ser807/811), the IC50 was 0.818 µM and the Emax was determined as 92%. Besides, on Cyclin E1, it took 0.04 µM to reach half-maximal degradation (DC50), the Dmax is 101% and the “Ratio of GSPT1 DC50/Cyclin E1 DC50” value is reported as >353. Also, on GSPT1, the DC50 is > 14 µM and the Dmax worked out at 14%.

As to `O=C1CCC(N2Cc3ccc(COC(=O)Nc4ccc(Oc5ccc(F)cc5F)cc4)c(Oc4ccccc4)c3C2=O)C(=O)N1` (centres unmarked) [Example 67, [2-(2,6-dioxopiperidin-3-yl)-3-oxo-4-phenoxy-2,3-dihydro-1H-isoindol-5-yl]methyl N-[4-(2,4-difluorophenoxy)phenyl]carbamate], in the assay with Phospho-Rb (Ser807/811), the IC50 was determined as 0.144 µM and the Emax came out at 127%. For the same compound, at Cyclin E1, half-maximal degradation (DC50) was put at 0.112 µM, the Dmax stood at 99% and the “Ratio of GSPT1 DC50/Cyclin E1 DC50” value is >125. At GSPT1, the DC50 is > 14 µM and the Dmax came to 10%.

Regarding `COc1c(COC(=O)Nc2ccc(Oc3cccc(F)c3)cc2F)ccc2c1C(=O)N(C1CCC(=O)NC1=O)C2` (centres unmarked) [Example 16, [2-(2,6-dioxopiperidin-3-yl)-4-methoxy-3-oxo-2,3-dihydro-1H-isoindol-5-yl]methyl N-[2-fluoro-4-(3-fluorophenoxy)phenyl]carbamate], in the assay with Phospho-Rb (Ser807/811), the midpoint of inhibition, the IC50, lay at 0.13 µM and the Emax turned out to be 105%. On Cyclin E1, half-maximal degradation (DC50) was put at 0.161 µM, the Dmax is 107% and the “Ratio of GSPT1 DC50/Cyclin E1 DC50” value is >87. For the same compound, at GSPT1, the DC50 is > 14 µM and the Dmax stood at 46%.

For `COc1c(COC(=O)Nc2ccc(Oc3ccccc3C(F)F)cc2)ccc2c1C(=O)N(C1CCC(=O)NC1=O)C2` (centres unmarked) [Example 85, [2-(2,6-dioxopiperidin-3-yl)-4-methoxy-3-oxo-2,3-dihydro-1H-isoindol-5-yl]methyl N-{4-[2-(difluoromethyl)phenoxy]phenyl}carbamate], in the assay on Phospho-Rb (Ser807/811), the IC50 was determined as 0.117 µM and the Emax turned out to be 98%. For the same compound, at Cyclin E1, the DC50 was 0.181 µM, the Dmax is 105% and the “Ratio of GSPT1 DC50/Cyclin E1 DC50” value is reported as >77. Besides, on GSPT1, the DC50 is > 14 µM and the Dmax is 35%.

Take `O=C1CCC(N2Cc3ccc(COC(=O)Nc4ccc(Oc5ccc(F)c(F)c5)cc4F)c(Oc4ccccc4)c3C2=O)C(=O)N1` (centres unmarked) [Example 69, [2-(2,6-dioxopiperidin-3-yl)-3-oxo-4-phenoxy-2,3-dihydro-1H-isoindol-5-yl]methyl N-[4-(3,4-difluorophenoxy)-2-fluorophenyl]carbamate]: in the assay with Phospho-Rb (Ser807/811), the 50% inhibitory concentration (IC50) was determined as 0.094 µM and the Emax turned out to be 125%. For the same compound, on Cyclin E1, it took 0.263 µM to reach half-maximal degradation (DC50), the Dmax came out at 105% and the “Ratio of GSPT1 DC50/Cyclin E1 DC50” value is recorded as >53. Besides, on GSPT1, the DC50 was > 14 µM and the Dmax amounted to 11%.

Consider `COc1c(COC(=O)Nc2ccc(Oc3ccc(F)cc3)cc2C)ccc2c1C(=O)N(C1CCC(=O)NC1=O)C2` (centres unmarked) [Example 51, [2-(2,6-dioxopiperidin-3-yl)-4-methoxy-3-oxo-2,3-dihydro-1H-isoindol-5-yl]methyl N-[4-(4-fluorophenoxy)-2-methylphenyl]carbamate], for which, in the assay with Phospho-Rb (Ser807/811), the half-maximal inhibitory concentration (IC50) was determined as 0.188 µM and the Emax was 109%. Moreover, on Cyclin E1, the 50% degradation concentration (DC50) was found to be 0.363 µM, the Dmax was determined as 106% and the “Ratio of GSPT1 DC50/Cyclin E1 DC50” value is on record as >39. For the same compound, on GSPT1, the DC50 is > 14 µM and the Dmax is 16%.

For the compound `O=C1CCC(N2Cc3ccc(COC(=O)Nc4ccc(Oc5ccc(F)c(F)c5)cc4)c(O[C@H]4CCOC4)c3C2=O)C(=O)N1` (stereo partly drawn) [Example 152, [2-(2,6-dioxopiperidin-3-yl)-3-oxo-4-[(3S)-oxolan-3-yloxy]-2,3-dihydro-1H-isoindol-5-yl]methyl N-[4-(3,4-difluorophenoxy)phenyl]carbamate], in the assay on Phospho-Rb (Ser807/811), the IC50 stood at 0.152 µM and the Emax came to 120%. At Cyclin E1, the 50% degradation concentration (DC50) was 0.152 µM, the Dmax was 108% and the “Ratio of GSPT1 DC50/Cyclin E1 DC50” value is given as >92. In addition, on GSPT1, the DC50 was > 14 µM and the Dmax was determined as 32%.

For the origin of these results see US20250084056A1, “SUBSTITUTED OXOISOINDOLINYL PIPERIDINE-2,6-DIONE COMPOUNDS” (BRISTOL-MYERS SQUIBB COMPANY, priority 2023, published 2025).
